# From the supplement of paper PMC10627819
# Columns and labels:
# Assay in all cases: fitness (endpoint OD595 vs no drug) (fraction); higher = more growth
# [1] = test system: B. subtilis 168
# How it was run: (§1)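 Each well of a 384-well plate received 30 µl of culture at OD595 0.01, or 55 µl for S. pneumoniae. TSB, LB Lennox or CY served as media at 37 °C. OD595 was taken every 30 min for 14 h and corrected by subtracting the first reading. Fitness is the optical density at stationary-phase entry divided by the robust mean of no-drug controls, capped at 1.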
# [2] = test system: S. aureus DSM 20231
# How it was run: as §1
# [3] = test system: S. pneumoniae D39V
# How it was run: as §1
# [4] = first compound 0.012 µg/mL, partner 0.5 µg/mL, one replicate
# [5] = first compound 0.012 µg/mL, partner 1 µg/mL, one replicate
# [6] = first compound 0.024 µg/mL, partner 0.5 µg/mL, one replicate
# [7] = first compound 0.024 µg/mL, partner 1 µg/mL, one replicate
# [8] = first compound 0.048 µg/mL, partner 0.5 µg/mL, one replicate
# [9] = first compound 0.048 µg/mL, partner 1 µg/mL, one replicate
compound,measurement,setting,value
CN(C)[C@@H]1C(O)=C(C(N)=O)C(=O)[C@@]2(O)C(O)=C3C(=O)c4c(O)ccc(Cl)c4[C@@](C)(O)[C@H]3C[C@@H]12 [Chlortetracycline] + CC1=C\[C@@H](O)CC(=O)Cc2nc(co2)C(=O)N2CCC=C2C(=O)O[C@H](C(C)C)[C@H](C)/C=C/C(=O)NC\C=C\1 [Virginiamycin M1],fitness,"[1]; first compound 0.0475 µg/mL, partner 0.0625 µg/mL",0.874
same,fitness,"[1]; first compound 0.0475 µg/mL, partner 0.125 µg/mL",0.898
same,fitness,"[1]; first compound 0.0475 µg/mL, partner 0.25 µg/mL",0.87
same,fitness,"[1]; first compound 0.095 µg/mL, partner 0.0625 µg/mL",0.823
same,fitness,"[1]; first compound 0.095 µg/mL, partner 0.125 µg/mL",0.725
same,fitness,"[1]; first compound 0.095 µg/mL, partner 0.25 µg/mL",0.759
same,fitness,"[1]; first compound 0.19 µg/mL, partner 0.0625 µg/mL",0.55
same,fitness,"[1]; first compound 0.19 µg/mL, partner 0.125 µg/mL",0.547
same,fitness,"[1]; first compound 0.19 µg/mL, partner 0.25 µg/mL",0.568
same,fitness,"[2]; first compound 0.006 µg/mL, partner 0.0625 µg/mL, one replicate",0.776
same,fitness,"[2]; first compound 0.006 µg/mL, partner 0.125 µg/mL, one replicate",0.785
same,fitness,"[2]; first compound 0.006 µg/mL, partner 0.25 µg/mL, one replicate",0.809
same,fitness,"[2]; first compound 0.012 µg/mL, partner 0.0625 µg/mL",0.565
same,fitness,"[2]; first compound 0.012 µg/mL, partner 0.125 µg/mL",0.533
same,fitness,"[2]; first compound 0.012 µg/mL, partner 0.25 µg/mL",0.567
same,fitness,[2]; [4],0.495
same,fitness,[2]; [5],0.462
same,fitness,"[2]; first compound 0.024 µg/mL, partner 0.0625 µg/mL",0.191
same,fitness,"[2]; first compound 0.024 µg/mL, partner 0.125 µg/mL",0.183
same,fitness,"[2]; first compound 0.024 µg/mL, partner 0.25 µg/mL",0.188
same,fitness,[2]; [6],0.146
same,fitness,[2]; [7],0.284
same,fitness,"[2]; first compound 0.048 µg/mL, partner 0.0625 µg/mL",0.0421
same,fitness,"[2]; first compound 0.048 µg/mL, partner 0.125 µg/mL",0.0556
same,fitness,"[2]; first compound 0.048 µg/mL, partner 0.25 µg/mL",0.0619
same,fitness,[2]; [8],0.0554
same,fitness,[2]; [9],0.263
same,fitness,"[3]; first compound 0.012 µg/mL, partner 0.15 µg/mL, one replicate",0.955
same,fitness,"[3]; first compound 0.012 µg/mL, partner 0.3 µg/mL, one replicate",0.86
same,fitness,[3]; [4],0.889
same,fitness,[3]; [5],0.88
same,fitness,"[3]; first compound 0.012 µg/mL, partner 2 µg/mL",0.817
same,fitness,"[3]; first compound 0.024 µg/mL, partner 0.15 µg/mL, one replicate",0.895
same,fitness,"[3]; first compound 0.024 µg/mL, partner 0.3 µg/mL, one replicate",0.859
same,fitness,[3]; [6],0.89
same,fitness,[3]; [7],0.845
same,fitness,"[3]; first compound 0.024 µg/mL, partner 2 µg/mL",0.787
same,fitness,"[3]; first compound 0.048 µg/mL, partner 0.15 µg/mL, one replicate",0.825
same,fitness,"[3]; first compound 0.048 µg/mL, partner 0.3 µg/mL, one replicate",0.782
same,fitness,[3]; [8],0.848
same,fitness,[3]; [9],0.761
same,fitness,"[3]; first compound 0.048 µg/mL, partner 2 µg/mL",0.74
same,fitness,"[3]; first compound 0.375 µg/mL, partner 0.5 µg/mL",0.025
same,fitness,"[3]; first compound 0.375 µg/mL, partner 1 µg/mL",0.0379
same,fitness,"[3]; first compound 0.375 µg/mL, partner 2 µg/mL",0.0569
same,fitness,"[3]; first compound 0.75 µg/mL, partner 0.5 µg/mL",0.0422
same,fitness,"[3]; first compound 0.75 µg/mL, partner 1 µg/mL",0.0446
same,fitness,"[3]; first compound 0.75 µg/mL, partner 2 µg/mL",0.0829
same,fitness,"[3]; first compound 1.5 µg/mL, partner 0.5 µg/mL",0.0504
same,fitness,"[3]; first compound 1.5 µg/mL, partner 1 µg/mL",0.0561
same,fitness,"[3]; first compound 1.5 µg/mL, partner 2 µg/mL",0.0443
CN(C)[C@@H]1C(O)=C(C(N)=O)C(=O)[C@@]2(O)C(O)=C3C(=O)c4c(O)ccc(Cl)c4[C@@](C)(O)[C@H]3C[C@@H]12 [Chlortetracycline] + CCN(CC)CCOC(=O)c1ccc(N)cc1 [Procaine],fitness,"[1]; first compound 0.0475 µg/mL, partner 85.5 µg/mL",0.908
same,fitness,"[1]; first compound 0.0475 µg/mL, partner 171 µg/mL",0.855
same,fitness,"[1]; first compound 0.0475 µg/mL, partner 342 µg/mL",0.878
same,fitness,"[1]; first compound 0.095 µg/mL, partner 85.5 µg/mL",0.695
same,fitness,"[1]; first compound 0.095 µg/mL, partner 171 µg/mL",0.699
same,fitness,"[1]; first compound 0.095 µg/mL, partner 342 µg/mL",0.703
same,fitness,"[1]; first compound 0.19 µg/mL, partner 171 µg/mL",0.528
same,fitness,"[2]; first compound 0.006 µg/mL, partner 85.5 µg/mL, one replicate",0.713
same,fitness,"[2]; first compound 0.006 µg/mL, partner 171 µg/mL, one replicate",0.8
same,fitness,"[2]; first compound 0.006 µg/mL, partner 342 µg/mL, one replicate",0.737
same,fitness,"[2]; first compound 0.012 µg/mL, partner 85.5 µg/mL",0.568
same,fitness,"[2]; first compound 0.012 µg/mL, partner 171 µg/mL",0.615
same,fitness,"[2]; first compound 0.012 µg/mL, partner 342 µg/mL",0.613
same,fitness,"[2]; first compound 0.024 µg/mL, partner 85.5 µg/mL",0.23
same,fitness,"[2]; first compound 0.024 µg/mL, partner 171 µg/mL",0.2
same,fitness,"[2]; first compound 0.024 µg/mL, partner 342 µg/mL",0.2
same,fitness,"[2]; first compound 0.048 µg/mL, partner 85.5 µg/mL",0.0791
same,fitness,"[2]; first compound 0.048 µg/mL, partner 171 µg/mL",0.058
same,fitness,"[2]; first compound 0.048 µg/mL, partner 342 µg/mL",0.0382
same,fitness,"[3]; first compound 0.012 µg/mL, partner 85.5 µg/mL, one replicate",0.95
same,fitness,"[3]; first compound 0.012 µg/mL, partner 171 µg/mL, one replicate",0.897
same,fitness,"[3]; first compound 0.012 µg/mL, partner 342 µg/mL, one replicate",0.929
same,fitness,"[3]; first compound 0.024 µg/mL, partner 85.5 µg/mL, one replicate",0.921
same,fitness,"[3]; first compound 0.024 µg/mL, partner 171 µg/mL, one replicate",0.835
same,fitness,"[3]; first compound 0.024 µg/mL, partner 342 µg/mL, one replicate",0.86
same,fitness,"[3]; first compound 0.048 µg/mL, partner 85.5 µg/mL, one replicate",0.835
same,fitness,"[3]; first compound 0.048 µg/mL, partner 171 µg/mL, one replicate",0.726
same,fitness,"[3]; first compound 0.048 µg/mL, partner 342 µg/mL, one replicate",0.736
same,fitness,"[3]; first compound 0.375 µg/mL, partner 85.5 µg/mL",0.0458
same,fitness,"[3]; first compound 0.375 µg/mL, partner 171 µg/mL",0.0259
same,fitness,"[3]; first compound 0.375 µg/mL, partner 342 µg/mL",0.0318
same,fitness,"[3]; first compound 0.75 µg/mL, partner 85.5 µg/mL",0.055
same,fitness,"[3]; first compound 0.75 µg/mL, partner 171 µg/mL",0.0347
same,fitness,"[3]; first compound 0.75 µg/mL, partner 342 µg/mL",0.0395
same,fitness,"[3]; first compound 1.5 µg/mL, partner 85.5 µg/mL",0.0277
same,fitness,"[3]; first compound 1.5 µg/mL, partner 171 µg/mL",0.0174
same,fitness,"[3]; first compound 1.5 µg/mL, partner 342 µg/mL",0.0396
